Source: US12128035B2, “Activating pyruvate kinase R” (Novo Nordisk Health Care AG, priority 2021, dated 2024)

System: 2,3-DPG blood levels
Test: Phase 1 SAD/MAD: blood 2,3-DPG (LC-MS/MS) in healthy volunteers
Type: in vivo, human
Protocol: In this study, SAD/MAD cohorts are randomized (3 to 1) to receive Compound 1 or placebo (P). Compound 1 was evaluated first in 4 healthy SAD cohorts and 4 healthy MAD (14-day dosing period) cohorts. Based on the safety, and PK/PD profile from HS, Compound 1 is then evaluated in 1 SCD SAD cohort and 2 SCD MAD cohorts. Specifically, based on the safety and pharmacokinetic/pharmacodynamics (PK/PD) profile in healthy volunteer studies, Compound 1 is evaluated in patients (pts) with SCD, first in a single dose (SD or SAD) cohort and then in multiple-dose (MD or MAD) cohorts (14-day and 12-week). Safety assessments include AEs, vital signs, ECGs and laboratory parameters. PK/PD blood sampling was performed on Day 1 (SAD/MAD) and Day 14 (MAD) and up to 72 h after the last dose and at the end-of-study visit. PD parameters included 2,3-DPG, ATP, and p50 in all cohorts with additional PD studies (including oxygen scan) performed only in the SCD cohorts. PD parameters included 2,3-DPG, ATP, p50, RBC deformability with controlled deoxygenation and reoxygenation (Lorrca® oxygen scan) and varying osmolality (Lorrca® osmoscan)). To maintain study blind, pt identifiers were removed when needed.
In the SAD cohorts, the subjects' blood 2,3-DPG levels were measured periodically after dosing by a qualified LC-MS/MS method for the quantitation of 2,3-DPG in blood. Decreased 2,3-DPG blood levels were observed 6 hours following a single dose of Compound 1 at all dose levels (earlier timepoints were not collected). Maximum decreases in 2,3-DPG levels generally occurred ˜24 hours after the first dose with the reduction sustained ˜48-72 hr postdose. Table 15 reports the median percentage change in 2,3-DPG blood levels, relative to baseline, measured over time in healthy volunteers after a single dose of Compound 1 (200 mg, 400 mg, 700 mg, or 1000 mg) or placebo. Table 16 reports the mean percentage change in 2,3-DPG blood levels, relative to baseline, measured over time in healthy volunteers after a single dose of Compound 1 (200 mg, 400 mg, 700 mg, or 1000 mg). Accordingly, the median and mean reduction in the concentration of 2,3-DPG, relative to baseline, was at least about 30% at all dose levels tested 24 hours after administration of the single dose.
In the MAD cohorts, the subjects' blood 2,3-DPG levels were measured periodically after dosing by a qualified LC-MS/MS method for the quantitation of 2,3-DPG in blood. […] Table 18B reports the mean percentage change in 2,3-DPG blood levels, relative to baseline, measured over time after the first dose on days 1 and 14 in healthy volunteers who received daily doses of Compound 1 (100 mg BID, 200 mg BID, 300 mg BID, or 400 mg QD) for 14 days. Accordingly, the median and mean reduction in the concentration of 2,3-DPG, relative to baseline, was at least about 25% at all dose levels tested 24 hours after administration of the first dose on day 1 and at least about 40% at all dose levels tested 24 hours after administration of the first dose on day 14.
The following procedures are employed for the analysis of ATP and 2,3-DPG in human whole blood K2EDTA using a protein precipitation extraction procedure and analysis by LC-MS/MS.
The following procedures are used for sample extraction prior to analysis via LC-MS/MS. 15.0 μL of the calibration standards, quality controls, matrix blanks, and samples are aliquoted into a 96-well plate. 50.0 μL of the internal standard spiking solution is added to all samples on the plate, with the exception of the matrix blank samples; 50.0 μL of water is added to the matrix blank samples. Subsequently, 150 μL of water is added to all samples on the plate. The plate is then covered and agitated by vortex at high speed for ten minutes, after which 750 μL of methanol is added to all samples on the plate. The plate is covered and agitated by vortex for approximately 1 minute. The plate is then centrifuged at approximately 3500 RPM at approximately 4° C. for five minutes. […]

[1] = HV 100 mg BID, Day 1, 0 h after first daily dose
[2] = HV 100 mg BID, Day 1, 6 h after first daily dose
[3] = HV 100 mg BID, Day 1, 8 h after first daily dose
[4] = HV 100 mg BID, Day 1, 12 h after first daily dose
[5] = HV 100 mg BID, Day 1, 16 h after first daily dose
[6] = HV 100 mg BID, Day 1, 24 h after first daily dose
[7] = HV 100 mg BID, Day 14, 0 h after first daily dose
[8] = HV 100 mg BID, Day 14, 6 h after first daily dose
[9] = HV 100 mg BID, Day 14, 8 h after first daily dose
[10] = HV 100 mg BID, Day 14, 12 h after first daily dose
[11] = HV 100 mg BID, Day 14, 16 h after first daily dose
[12] = HV 100 mg BID, Day 14, 24 h after first daily dose
[13] = HV 100 mg BID, Day 14, 48 h after first daily dose
[14] = HV 100 mg BID, Day 14, 72 h after first daily dose
[15] = HV 200 mg BID, Day 1, 0 h after first daily dose
[16] = HV 200 mg BID, Day 1, 6 h after first daily dose
[17] = HV 200 mg BID, Day 1, 8 h after first daily dose
[18] = HV 200 mg BID, Day 1, 12 h after first daily dose
[19] = HV 200 mg BID, Day 1, 16 h after first daily dose
[20] = HV 200 mg BID, Day 1, 24 h after first daily dose
[21] = HV 200 mg BID, Day 14, 0 h after first daily dose
[22] = HV 200 mg BID, Day 14, 6 h after first daily dose
[23] = HV 200 mg BID, Day 14, 8 h after first daily dose
[24] = HV 200 mg BID, Day 14, 12 h after first daily dose
[25] = HV 200 mg BID, Day 14, 16 h after first daily dose
[26] = HV 200 mg BID, Day 14, 24 h after first daily dose
[27] = HV 200 mg BID, Day 14, 48 h after first daily dose
[28] = HV 200 mg BID, Day 14, 72 h after first daily dose
[29] = HV 300 mg BID, Day 1, 0 h after first daily dose
[30] = HV 300 mg BID, Day 1, 6 h after first daily dose
[31] = HV 300 mg BID, Day 1, 8 h after first daily dose
[32] = HV 300 mg BID, Day 1, 12 h after first daily dose
[33] = HV 300 mg BID, Day 1, 16 h after first daily dose
[34] = HV 300 mg BID, Day 1, 24 h after first daily dose
[35] = HV 300 mg BID, Day 14, 0 h after first daily dose
[36] = HV 300 mg BID, Day 14, 8 h after first daily dose
[37] = HV 300 mg BID, Day 14, 12 h after first daily dose
[38] = HV 300 mg BID, Day 14, 16 h after first daily dose
[39] = HV 300 mg BID, Day 14, 24 h after first daily dose
[40] = HV 300 mg BID, Day 14, 48 h after first daily dose
[41] = HV 300 mg BID, Day 14, 72 h after first daily dose
[42] = HV 400 mg QD, Day 1, 0 h after first daily dose
[43] = HV 400 mg QD, Day 1, 8 h after first daily dose
[44] = HV 400 mg QD, Day 1, 12 h after first daily dose
[45] = HV 400 mg QD, Day 1, 16 h after first daily dose
[46] = HV 400 mg QD, Day 1, 24 h after first daily dose
[47] = HV 400 mg QD, Day 14, 0 h after first daily dose

Compound: O=C([C@H](CO)c1ccccc1)N1CC2=C(C1)CN(S(=O)(=O)c1cnc3c(c1)OCCO3)C2 (single isomer, unassigned) [Compound 1]
- Mean Percentage Change in 2,3-DPG Levels [1]: 0%
- Median Percentage Change in 2,3-DPG Levels [1]: 0.0%
- Mean Percentage Change in 2,3-DPG Levels [2]: −15%
- Median Percentage Change in 2,3-DPG Levels [2]: −16%
- Mean Percentage Change in 2,3-DPG Levels [3]: −13%
- Median Percentage Change in 2,3-DPG Levels [3]: −12%
- Mean Percentage Change in 2,3-DPG Levels [4]: −18%
- Median Percentage Change in 2,3-DPG Levels [4]: −18%
- Mean Percentage Change in 2,3-DPG Levels [5]: −20%
- Median Percentage Change in 2,3-DPG Levels [5]: −18%
- Mean Percentage Change in 2,3-DPG Levels [6]: −29%
- Median Percentage Change in 2,3-DPG Levels [6]: −28%
- Mean Percentage Change in 2,3-DPG Levels [7]: −43%
- Median Percentage Change in 2,3-DPG Levels [7]: −42.0%
- Mean Percentage Change in 2,3-DPG Levels [8]: −44%
- Median Percentage Change in 2,3-DPG Levels [8]: −44%
- Mean Percentage Change in 2,3-DPG Levels [9]: −45%
- Median Percentage Change in 2,3-DPG Levels [9]: −45%
- Mean Percentage Change in 2,3-DPG Levels [10]: −44%
- Median Percentage Change in 2,3-DPG Levels [10]: −44%
- Mean Percentage Change in 2,3-DPG Levels [11]: −42%
- Median Percentage Change in 2,3-DPG Levels [11]: −44%
- Mean Percentage Change in 2,3-DPG Levels [12]: −43%
- Median Percentage Change in 2,3-DPG Levels [12]: −44%
- Mean Percentage Change in 2,3-DPG Levels [13]: −32%
- Median Percentage Change in 2,3-DPG Levels [13]: −35%
- Mean Percentage Change in 2,3-DPG Levels [14]: −22%
- Median Percentage Change in 2,3-DPG Levels [14]: −20%
- Mean Percentage Change in 2,3-DPG Levels [15]: 0%
- Median Percentage Change in 2,3-DPG Levels [15]: 0.0%
- Mean Percentage Change in 2,3-DPG Levels [16]: −16%
- Median Percentage Change in 2,3-DPG Levels [16]: −13%
- Mean Percentage Change in 2,3-DPG Levels [17]: −19%
- Median Percentage Change in 2,3-DPG Levels [17]: −22%
- Mean Percentage Change in 2,3-DPG Levels [18]: −22%
- Median Percentage Change in 2,3-DPG Levels [18]: −23%
- Mean Percentage Change in 2,3-DPG Levels [19]: −33%
- Median Percentage Change in 2,3-DPG Levels [19]: −34%
- Mean Percentage Change in 2,3-DPG Levels [20]: −45%
- Median Percentage Change in 2,3-DPG Levels [20]: −48%
- Mean Percentage Change in 2,3-DPG Levels [21]: −49%
- Median Percentage Change in 2,3-DPG Levels [21]: −49%
- Mean Percentage Change in 2,3-DPG Levels [22]: −49%
- Median Percentage Change in 2,3-DPG Levels [22]: −49%
- Mean Percentage Change in 2,3-DPG Levels [23]: −47%
- Median Percentage Change in 2,3-DPG Levels [23]: −44%
- Mean Percentage Change in 2,3-DPG Levels [24]: −43%
- Median Percentage Change in 2,3-DPG Levels [24]: −42%
- Mean Percentage Change in 2,3-DPG Levels [25]: −49%
- Median Percentage Change in 2,3-DPG Levels [25]: −43%
- Mean Percentage Change in 2,3-DPG Levels [26]: −47%
- Median Percentage Change in 2,3-DPG Levels [26]: −48%
- Mean Percentage Change in 2,3-DPG Levels [27]: −40%
- Median Percentage Change in 2,3-DPG Levels [27]: −39%
- Mean Percentage Change in 2,3-DPG Levels [28]: −23%
- Median Percentage Change in 2,3-DPG Levels [28]: −20%
- Mean Percentage Change in 2,3-DPG Levels [29]: 0%
- Median Percentage Change in 2,3-DPG Levels [29]: 0.0%
- Mean Percentage Change in 2,3-DPG Levels [30]: −20%
- Median Percentage Change in 2,3-DPG Levels [30]: −19%
- Mean Percentage Change in 2,3-DPG Levels [31]: −22%
- Median Percentage Change in 2,3-DPG Levels [31]: −24%
- Mean Percentage Change in 2,3-DPG Levels [32]: −31%
- Median Percentage Change in 2,3-DPG Levels [32]: −32%
- Mean Percentage Change in 2,3-DPG Levels [33]: −39%
- Median Percentage Change in 2,3-DPG Levels [33]: −41%
- Mean Percentage Change in 2,3-DPG Levels [34]: −47%
- Median Percentage Change in 2,3-DPG Levels [34]: −51%
- Mean Percentage Change in 2,3-DPG Levels [35]: −57%
- Median Percentage Change in 2,3-DPG Levels [35]: −59%
- Mean Percentage Change in 2,3-DPG Levels (HV 300 mg BID, Day 14, 6 h after first daily dose): −56%
- Mean Percentage Change in 2,3-DPG Levels [36]: −55%
- Median Percentage Change in 2,3-DPG Levels [36]: −55%
- Mean Percentage Change in 2,3-DPG Levels [37]: −54%
- Median Percentage Change in 2,3-DPG Levels [37]: −55%
- Mean Percentage Change in 2,3-DPG Levels [38]: −53%
- Median Percentage Change in 2,3-DPG Levels [38]: −52%
- Mean Percentage Change in 2,3-DPG Levels [39]: −52%
- Median Percentage Change in 2,3-DPG Levels [39]: −53%
- Mean Percentage Change in 2,3-DPG Levels [40]: −43%
- Median Percentage Change in 2,3-DPG Levels [40]: −45%
- Mean Percentage Change in 2,3-DPG Levels [41]: −34%
- Median Percentage Change in 2,3-DPG Levels [41]: −33%
- Mean Percentage Change in 2,3-DPG Levels [42]: 0%
- Median Percentage Change in 2,3-DPG Levels [42]: 0.0%
- Mean Percentage Change in 2,3-DPG Levels (HV 400 mg QD, Day 1, 6 h after first daily dose): −26%
- Mean Percentage Change in 2,3-DPG Levels [43]: −29%
- Median Percentage Change in 2,3-DPG Levels [43]: −27%
- Mean Percentage Change in 2,3-DPG Levels [44]: −38%
- Median Percentage Change in 2,3-DPG Levels [44]: −38%
- Mean Percentage Change in 2,3-DPG Levels [45]: −42%
- Median Percentage Change in 2,3-DPG Levels [45]: −41%
- Mean Percentage Change in 2,3-DPG Levels [46]: −48%
- Median Percentage Change in 2,3-DPG Levels [46]: −48%
- Mean Percentage Change in 2,3-DPG Levels [47]: −52%
- Median Percentage Change in 2,3-DPG Levels [47]: −51%
- Mean Percentage Change in 2,3-DPG Levels (HV 400 mg QD, Day 14, 6 h after first daily dose): −54%
